PubChem BioAssay (NCI)
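Five concentrations, 48 hours, 96-well plates. At the GI50, growth is halved. At the TGI there is no net growth.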

Key:
Test in all cases: inhibition of tumour cell growth, NCI panel, 48 h
[1] = system: 786-0 renal
[2] = system: CAKI-1 renal
[3] = system: CCRF-CEM leukemia
[4] = system: DU-145 prostate
[5] = system: EKVX NSCLC
[6] = system: HCT-116 colon
[7] = system: IGROV1 ovarian
[8] = system: OVCAR-8 ovarian
[9] = system: SK-MEL-5 melanoma
[10] = system: UACC-62 melanoma

SMILES | TGI [1] | TGI [2] | TGI [3] | TGI [4] | TGI [5] | TGI [6] | TGI [7] | TGI [8] | TGI [9] | TGI [10] | GI50 [2] | GI50 [3] | GI50 [4] | GI50 [5] | GI50 [6] | GI50 [7] | GI50 [8] | GI50 [9] | GI50 [10]
CC(C)OC(=O)c1ccc(NCc2cc(O)ccc2O)cc1 | 10.3 µM | 2.81 µM | > 100 µM | 15.4 µM | 17.5 µM | 19.8 µM | 15 µM | > 21.9 µM | 10.8 µM | 30.9 µM |  |  |  |  |  |  |  |  | 
COc1ccc(C2c3cc4c(cc3OC(NNc3ccccc3)C2C)OCO4)cc1 (centres undefined) | 51.8 µM | > 100 µM | 40.5 µM | > 100 µM | 24.3 µM | 43.2 µM | > 100 µM | 63.5 µM | 99.4 µM | 59.5 µM |  |  |  |  |  |  |  |  | 
CC(C)C1CNC(=O)C2(C=NC(C(C)C)CNC(=O)C3(C=N1)CCCO3)CCCO2 (centres undefined) | > 10 µM | > 10 µM | > 10 µM | > 10 µM | > 10 µM | > 10 µM | > 10 µM | > 10 µM | > 10 µM | > 10 µM |  |  |  |  |  |  |  |  | 
CCOC(=O)N/N=C(/N)c1cccc(Br)c1 | > 100 µM | > 100 µM | > 100 µM | > 100 µM | > 100 µM | > 100 µM | > 100 µM | > 100 µM | > 100 µM | > 100 µM |  |  |  |  |  |  |  |  | 
Cc1cccc(C2ON=C(c3ccccc3)N2C23CC4CC(CC(C4)C2)C3)c1 (centres undefined) | > 10 µM | > 10 µM | > 10 µM | > 10 µM | > 10 µM | > 10 µM | > 10 µM | > 10 µM | > 10 µM | > 10 µM |  |  |  |  |  |  |  |  | 
O[C@]12C=C(c3nccc4c3[nH]c3ccccc34)[C@@H]3CCN(CCCC/C=C\CC1)C[C@@]31CC3/C=C\CCCCN3[C@H]12 (some centres undefined) | 0.615 µM | 6.17 µM | > 29.6 µM | 2.86 µM | 3.57 µM | 0.647 µM | 2.28 µM | 1.51 µM | 0.34 µM | 0.159 µM |  |  |  |  |  |  |  |  | 
O=C1N=C2SC=C(NC(=S)Nc3ccccc3)N2NC12c1ccccc1-c1ccccc12 | > 10 µM | > 10 µM | > 10 µM | > 10 µM | > 10 µM | > 10 µM | > 10 µM | > 10 µM | > 10 µM | > 10 µM |  |  |  |  |  |  |  |  | 
CC(C)[C@@H]1CC[C@@H](C)C[C@H]1OC(=O)c1c2n(c3ccccc13)C[C@H]1OC(C)(C)O[C@@H]21 | > 100 µM | 87.3 µM | > 100 µM | > 100 µM | 73.8 µM | > 100 µM | > 100 µM | > 100 µM | > 100 µM | > 100 µM |  |  |  |  |  |  |  |  | 
CCOC(=O)C(NC(=O)OCc1ccccc1)C(=O)O (centres undefined) | > 100 µM | > 100 µM | > 100 µM | > 100 µM | > 100 µM | > 100 µM | > 100 µM | > 100 µM | > 100 µM | > 100 µM |  |  |  |  |  |  |  |  | 
Clc1ccc(Cl)c(N=Nc2cc3c4c(c2)CCN4CCC3)c1 | > 10 µM | > 10 µM | > 10 µM | > 10 µM | > 10 µM | > 10 µM | > 10 µM | > 10 µM | > 10 µM | > 10 µM |  |  |  |  |  |  |  |  | 
CCN(CC)CCCNc1c2c(Cl)cc(Cl)cc2nc2nc(=O)[nH]c(C)c12 | 38.1 µM | > 100 µM | > 100 µM | > 100 µM | > 100 µM | 36.9 µM | > 100 µM | > 10 µM | > 100 µM | > 100 µM |  |  |  |  |  |  |  |  | 
CC(=O)CCCCn1c(=O)c2c(nc(Br)n2C)n(C)c1=O | > 100 µM | 3.87 µM | > 100 µM | > 100 µM | 84.1 µM | > 100 µM | > 100 µM | > 100 µM | > 100 µM | > 100 µM |  |  |  |  |  |  |  |  | 
COC1(CC[C@@H](C)COC2OC(CO)C(O)C(O)C2O)O[C@H]2C[C@H]3[C@@H]4CC=C5C[C@@H](OC6OC(CO)C(OC7OC(C)C(O)C(O)C7O)C(O)C6OC6OC(C)C(O)C(O)C6O)CC[C@]5(C)[C@H]4CC[C@]3(C)[C@H]2[C@@H]1C (some centres undefined) | 4.02 µM | 2.61 µM | 20.2 µM | 4.17 µM | 33.3 µM | 10.4 µM | 7.16 µM | 8.47 µM | 12.2 µM | 16 µM | 1.25 µM | 7.6 µM | 1.92 µM | 10 µM | 1.96 µM | 2.5 µM | 2.39 µM | 3.51 µM | 2.31 µM
O=C1N/C(=N\N=C\c2ccccc2)C(c2ccccc2)O1 (centres undefined) | > 100 µM | > 100 µM | 49.4 µM | > 100 µM | > 100 µM | > 100 µM | > 100 µM | > 100 µM | > 100 µM | > 100 µM |  |  |  |  |  |  |  |  | 
C=C1CC(C)(COc2ccc3c(C)c(Cl)c(=O)oc3c2)OC1=O (centres undefined) | 4.65 µM | 6.58 µM | 2.54 µM | 6.8 µM | 20.8 µM | 1.57 µM | 3.94 µM | 17.3 µM | 4.2 µM | 3.01 µM |  |  |  |  |  |  |  |  | 
O=C1Oc2ccccc2C1C/C(=N\Nc1ccccc1)c1ccccc1O (centres undefined) | > 100 µM | > 100 µM | > 100 µM | > 100 µM | > 100 µM | > 100 µM | > 100 µM | > 100 µM | > 100 µM | > 100 µM |  |  |  |  |  |  |  |  | 
